Measurements published in the supplement of paper PMC10307832.

How the values were obtained:
Assay in all cases: relative viability (nuclei count vs DMSO), 5 days (fraction); higher = more cells survive
XMD8-85 + Crizotinib = compound: CN1CCN(CC1)C2=CC(=C(C=C2)NC3=NC=C4C(=N3)N(C5=CC=CC=C5C(=O)N4C)C)OC [XMD8-85] + C[C@@H](Oc1cc(-c2cnn(C3CCNCC3)c2)cnc1N)c1c(Cl)ccc(F)c1Cl [Crizotinib] (partner 1 µM)
Summary of the method: (§1)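 Lung cancer cell lines, seeded in 1536-well plates, were treated the following day by pin tool with a single drug or with five library-drug doses (not always all listed) in √10 steps on top of a fixed anchor-drug dose. Cells were fixed and nuclei stained in one step after 5 days, and nuclei were counted. Relative viability is the nuclei count for treated wells divided by that for vehicle wells, reported as medians of duplicate plates.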

4EGI-1 + OSI-027 = compound: O=C(O)C(Cc1ccccc1[N+](=O)[O-])=NNc1nc(-c2ccc(Cl)c(Cl)c2)cs1 (mixture of isomers) [4EGI-1] + COc1cccc2cc(-c3nc([C@H]4CC[C@H](C(=O)O)CC4)n4ncnc(N)c34)[nH]c12 [OSI-027] (partner 0.5 µM)
Summary of the method: as §1

XMD8-85 + Luminespib = compound: CN1CCN(CC1)C2=CC(=C(C=C2)NC3=NC=C4C(=N3)N(C5=CC=CC=C5C(=O)N4C)C)OC [XMD8-85] + CCNC(=O)c1noc(-c2cc(C(C)C)c(O)cc2O)c1-c1ccc(CN2CCOCC2)cc1 [Luminespib] (partner 0.01 µM)
Summary of the method: as §1

XMD8-85 + Pemetrexed = compound: CN1CCN(CC1)C2=CC(=C(C=C2)NC3=NC=C4C(=N3)N(C5=CC=CC=C5C(=O)N4C)C)OC [XMD8-85] + Nc1nc2[nH]cc(CCc3ccc(C(=O)N[C@@H](CCC(=O)O)C(=O)O)cc3)c2c(=O)[nH]1 [Pemetrexed] (partner 0.2 µM)
Summary of the method: as §1

Cell Line	relative viability (XMD8-85 + Crizotinib; first compound 0.08 µM)	relative viability (XMD8-85 + Crizotinib; first compound 0.253 µM)	relative viability (XMD8-85 + Crizotinib; first compound 0.8 µM)	relative viability (XMD8-85 + Crizotinib; first compound 2.53 µM)	relative viability (XMD8-85 + Crizotinib; first compound 8 µM)	relative viability (4EGI-1 + OSI-027; first compound 0.5 µM)	relative viability (4EGI-1 + OSI-027; first compound 5 µM)	relative viability (4EGI-1 + OSI-027; first compound 15.81 µM)	relative viability (4EGI-1 + OSI-027; first compound 50 µM)	relative viability (XMD8-85 + Luminespib; first compound 0.08 µM)	relative viability (XMD8-85 + Luminespib; first compound 0.253 µM)	relative viability (XMD8-85 + Luminespib; first compound 0.8 µM)	relative viability (XMD8-85 + Luminespib; first compound 2.53 µM)	relative viability (XMD8-85 + Luminespib; first compound 8 µM)	relative viability (XMD8-85 + Pemetrexed; first compound 0.08 µM)	relative viability (XMD8-85 + Pemetrexed; first compound 0.253 µM)	relative viability (XMD8-85 + Pemetrexed; first compound 0.8 µM)	relative viability (XMD8-85 + Pemetrexed; first compound 2.53 µM)	relative viability (XMD8-85 + Pemetrexed; first compound 8 µM)	relative viability (4EGI-1 + OSI-027; first compound 1.581 µM)
NCI-H1650	1.01	0.773	1.12	0.715	0.256	0.705	0.681	0.263	0.173	0.203	0.216	0.199	0.173	0.173	0.376	0.384	0.384	0.306	0.294	
NCI-H661	1.03	1.16	0.905	1.1	0.854	0.713	0.649	0.383	0.245	1.06	0.952	1.01	1.04	0.806	0.944	0.946	0.93	1.01	0.782	0.583
NCI-H2228	0.454	0.442	0.521	0.528	0.26	0.674	0.594	0.607	0.13	0.154	0.209	0.114	0.188	0.185	0.334	0.319	0.343	0.398	0.237	0.54
CAL-12T	0.357	0.664	0.779	0.474	0.15	0.822	0.755	0.522	0.21	0.315	0.652	0.339	0.333	0.216	0.956	1.15		0.862	0.681	0.413
NCI-H441	0.592	0.648	0.89	0.931	0.485	0.812	0.653	0.478	0.333	0.299	0.333	0.4	0.356	0.231	0.263	0.261	0.247	0.279	0.256	0.488
NCI-H1437	0.76	0.923	1.14	0.856	0.491	0.945	0.886	0.743	0.256	1.15	1.19	1.15	1.07	0.813	0.29	0.33	0.363	0.317	0.272	0.853
LU99A	0.476	0.484	0.687	0.626	0.367	0.306	0.269	0.274	0.288	0.228	0.252	0.206	0.309	0.193	0.162	0.179	0.183	0.199	0.165	0.275
NCI-H2347	0.696	0.785	0.749	0.609	0.614	0.404	0.475	0.389	0.405	0.545	0.405	0.243	0.208	0.306	0.393	0.529	0.427	0.406	0.431	
